# Columns and labels:
# gout attack = tested on: gout attack
# Source text: 2. Preparation of Embrocation • Take KOH16.8 g, dissolve in 1 liters of distilled water, and get a concentration of 0.3 mol/L.
# They dripped a cotton swab into the embrocation (0.1 mol/L) prepared by themself and embrocated on the attack position.
# blood uric acid [1] = conditions: applicant
# Procedure: 2. Preparation of Oral Liquid • Take KOH0.12 g, dissolve in 1 liters of distilled water, and get a concentration of 0.0021 mol/L. Take orally for 50 ml per time and one time per day.
# So they began to take oral use tests from January 2016. […] The oral concentration (mol/L) they had tried includes 0.001, 0.0018, 0.0021, 0.0025, 0.003, 0.005 and 0.008 in turn.
# high uric acid and gout = conditions: water injection for intravenous drip, high uric acid and gout sufferers
# blood uric acid [2] = conditions: applicant; remark: listed apart in the source
# Procedure: On December 3, they took a footbath in 45° C. soaking solution (0.01 mol/L) for an hour, and then went to test at Chaohu Hospital of Anhui Medical University.
# gout = tested on: gout
# Procedure: The solution can be also heated to 40-48° C. and then used for footbath. For acute gout attack, if the attack position is easy to soak, such as ankles, toe joints, hands and wrist joints, the solution can also be used to soak such positions. The solution should be embrocated on the attack positions if such positions are not convenient to soak, such as knee joints and elbow joints. […] Drip a cotton swab in the embrocation and embrocate on the attack positions, or drip a dressing in the embrocation and apply on the attack positions. It is very inconvenient to undress when applying topical drug in cold season, then oral drug is an option. […] Have 50 ml of the liquid before meals. For the sufferers of high blood uric acid and acute, intermittent and chronic gout, the embrocation, soak solution and oral liquid can be used separately or concurrently at the same time.
# [3] = cited from earlier work; for solubility: 37° C.
# [4] = cited from earlier work
# [5] = December 3, one footbath in 45° C. soaking solution (0.01 mol/L) for an hour
# [6] = baseline, day after eating two chicken livers
compound,measurement,setting,value
"[K+].[OH-] [KOH, potassium hydroxide]",time until pain was relieved and foot could touch the ground,"gout attack; embrocation 0.1 mol/L on first metatarsophalangeal joint, applicant, May 2008",about ten
same,time until gout symptoms disappeared,"gout attack; embrocation 0.1 mol/L, 2-3 times per day, applicant",three
same,"effect on swelling and soreness (forerunner of gout), prevention of onset","gout attack; embrocation, molar concentration of KOH solution 0.1, 0.2, 0.3 and 0.4, 2009-2013, applicant",all were effective
same,blood uric acid after oral use,"blood uric acid [1]; April 2016, after oral KOH solution 23 times since January 2016",351 µmol/L
same,discomfort / taste of oral liquid,blood uric acid [1]; oral liquid 0.001 mol/L-0.005 mol/L,brought no discomfort to the body
same,anticipated effect of intravenous drip,high uric acid and gout,immediate effect
same,blood uric acid after footbath,blood uric acid [2]; [5],486 μmol/LL
same,urine uric acid after footbath,blood uric acid [2]; [5],6.59 mmol/L
same,blood uric acid after footbath once a day,"blood uric acid [2]; December 10, footbath once a day since December 3, soaking solution 0.01 mol/L",389 µmol/L
same,drop of blood uric acid,blood uric acid [2]; December 10 versus 495 μmol/L before footbath,21%
same,blood uric acid before footbath,blood uric acid [2]; [6],495 µmol/L
same,urine uric acid before footbath,blood uric acid [2]; [6],6.3 mmol/L
same,consecutive days of application until gout symptoms completely disappear,"gout; footbath, oral or embrocation",2 to 3 days
same,time to relief of symptoms (pain and swelling during gout attack),"gout; footbath, oral or embrocation",ten
same,corrosion of the skin,gout; low concentration KOH,will not corrode the skin
same,side effects,gout; low concentration KOH,no side effects
O=c1[nH]c(=O)c2[nH]c(=O)[nH]c2[nH]1 [potassium urate],solubility compared with uric acid and sodium urate,[3],much higher than uric acid and sodium urate
O=c1[nH]c(=O)c2[nH]c([O-])nc2[nH]1.[Na+] [sodium urate],solubility,[3],8.0 mmol/L
"O=c1[nH]c(=O)c2[nH]c(=O)[nH]c2[nH]1 [uric acid, 2,6,8-Trihydroxypurine]",solubility,[3],0.5 mmol/L
same,"dissociation constant (PKa), the 3rd nitrogen dissociation",[4],10.3

# — patent US10076539B2 (priority 2016, dated 2018)
